From patent US10829499B2, “Tetracyclic heterocycle compounds useful as HIV integrase inhibitors” (MERCK SHARP & DOHME CORP., priority 2016, dated 2020)
Read-outs that look alike come from different tables or passages of the source.

System: HIV-1 (NL4-3 strain)
Assay: Assay for Inhibition of HIV Replication (kinetic assay, MT4-gag-GFP reporter cell line; VIKING)
Assay type: cell-based
Protocol: This assay is a kinetic assay that employs a reporter cell line (MT4-gag-GFP) to quantify the number of new cells infected in each round of replication.
MT4-GFP cells (250,000 cells/ml) were bulk-infected with HIV-1 (NL4-3 strain) at low multiplicity of infection (MOI) in RPMI cell culture medium+10% FBS for 24 hours. Cells were then washed once in RPMI cell culture medium+10% FBS and resuspended in RPMI cell culture medium+0% or 10% or 100% normal human serum (NHS). Test compounds were serial-diluted in DMSO on an ECHO® liquid handler. The infected MT4-GFP cells were added to a 384-well poly-D-lysine coated black plate with clear bottom in which the diluted test compounds were placed. The cells were seeded at 8,000 cells per well and the final DMSO concentration was 0.4%. The infected cells (Green GFP cells) were quantified at both 24 and 48 hours post incubation using Acumen eX3. Viral reproductive ratio (R0) was determined using the number of infected cells at 48 hours divided by the number of infected cells at 24 hours. Percent viral growth inhibition was calculated by [1-(R-Rtripledrug),/(RDMSO-Rtripledrug)]*100. Compound potency IP or IC50 was determined by a 4-parameter dose response curve analysis. In vitro potency in the cell-based assay in the absence of normal human serum (NHS) and the presence of 100% NHS.

[1] = MT4-GFP cells infected with HIV-1 NL4-3, 0% normal human serum (NHS), read-out: VIKING IP50 (nM) with 0% NHS
[2] = MT4-GFP cells infected with HIV-1 NL4-3, 100% normal human serum (NHS), read-out: VIKING IP50 (nM) with 100% NHS
[3] = Human immunodeficiency virus 1, NL43, MT4-GFP cells infected with HIV-1 NL4-3, 0% normal human serum (NHS), read-out: VIKING IP50 (nM) with 0% NHS
[4] = Human immunodeficiency virus 1, NL43, MT4-GFP cells infected with HIV-1 NL4-3, 100% normal human serum (NHS), read-out: VIKING IP50 (nM) with 100% NHS

Compound | IC50 [1] [nM] | IC50 [2] [nM] | IC50 [3] [nM] | IC50 [4] [nM]
C[C@H]1CCOC2C3CCc4c(C(=O)NCc5ccc(F)cc5F)c(=O)c(O)c(n43)C(=O)N21 (single isomer, unassigned) [Compound 63] | 3.09 | 127 | – | –
C[C@H]1CN2C(=O)c3c(O)c(=O)c(C(=O)NCc4cccc(Cl)c4F)c4n3C(CC4)C2N1S(C)(=O)=O (some centres unmarked) [Compound 119] | 8.77 | 445 | – | –
C[C@@H]1COC2C3CCc4c(C(=O)NCc5ccc(F)cc5F)c(=O)c(O)c(n43)C(=O)N21 (single isomer, unassigned) [Compound 34] | 0.635 | 1560 | – | –
C[C@H]1CNC2C3CCc4c(C(=O)NCc5ccc(F)cc5F)c(=O)c(O)c(n43)C(=O)N21 (some centres unmarked) [Compound 100] | 1.94 | 56.5 | – | –
C[C@H]1CNC2C3CCc4c(-c5nnc(Cc6ccc(F)cc6F)s5)c(=O)c(O)c(n43)C(=O)N21 (some centres unmarked) [Compound 129] | 15.3 | 283 | – | –
O=C(NCc1c(F)cc(F)cc1F)c1c2n3c(c(O)c1=O)C(=O)N1C4CCC(C4)OC1C3CC2 (centres unmarked) [Compound 169] | 2.71 | 42.9 | – | –
O=C(NCc1cccc(Cl)c1F)c1c2n3c(c(O)c1=O)C(=O)N1C4CCC(C4)OC1C3CC2 (centres unmarked) [Compound 153] | 4.53 | 95.5 | – | –
CCNC1CC2C3OCCCN3C(=O)c3c(O)c(=O)c(C(=O)NCc4c(F)cc(F)cc4F)c1n32 (centres unmarked) [Compound 180] | 3.57 | 20.1 | – | –
O=C(NCc1ccc(F)cc1F)c1c2n3c(c(O)c1=O)C(=O)N1CCOC1C3CC2 (single isomer, unassigned) [Compound 9] | – | 1130 | 0.7 | –
C[C@H]1CN2C(=O)c3c(O)c(=O)c(C(=O)NCc4cccc(Cl)c4F)c4n3C(CC4)C2O1 (single isomer, unassigned) [Compound 45] | 5.81 | 486 | – | –
O=C(NCc1cccc(Cl)c1F)c1c2n3c(c(O)c1=O)C(=O)N1CCOC1C3CC2 (single isomer, unassigned) [Compound 5] | 0.409 | 2250 | – | –
C[C@H]1CNC2C3CCc4c(C(=O)NCc5ccc(F)cc5F)c(=O)c(O)c(n43)C(=O)N21 (some centres unmarked) [Compound 101] | 1.99 | 23.4 | – | –
O=C(NCc1ccc(F)cc1F)c1c2n3c(c(O)c1=O)C(=O)N1CCCOC1C3CC2 (single isomer, unassigned) [Compound 58] | 0.845 | 1520 | – | –
CN1CCCN2C(=O)c3c(O)c(=O)c(C(=O)NCc4ccc(F)cc4F)c4n3C(CC4)C12 (single isomer, unassigned) [Compound 83] | 0.857 | 16.8 | – | –
COC1CC2C3OCCN3C(=O)c3c(O)c(=O)c(C(=O)NCc4ccc(F)cc4F)c1n32 (single isomer, unassigned) [Compound 76] | 1.01 | 17.8 | – | –
O=C(NCc1cccc(Cl)c1F)c1c2n3c(c(O)c1=O)C(=O)N1CCOC1C3CC2 (single isomer, unassigned) [Compound 3] | – | 372 | 0.478 | –
COC1CC2C3OCCN3C(=O)c3c(O)c(=O)c(C(=O)NCc4ccc(F)cc4F)c1n32 (single isomer, unassigned) [Compound 78] | 2.12 | 534 | – | –
O=C(NCc1c(F)cccc1F)c1c2n3c(c(O)c1=O)C(=O)N1CCOC1C3CC2 (single isomer, unassigned) [Compound 16] | 6.28 | – | – | 8000
C[C@H]1CN(S(C)(=O)=O)C2C3CCc4c(C(=O)NCc5cccc(Cl)c5F)c(=O)c(O)c(n43)C(=O)N21 (some centres unmarked) [Compound 117] | – | – | 3.78 | 130
O=C(NCc1ccc(F)c(Cl)c1F)c1c2n3c(c(O)c1=O)C(=O)N1C4CCC(C4)OC1C3CC2 (centres unmarked) [Compound 159] | 5.85 | 89.3 | – | –
CCNC1CC2C3OCCCN3C(=O)c3c(O)c(=O)c(C(=O)NCc4c(F)cc(F)cc4F)c1n32 (centres unmarked) [Compound 182] | 6.63 | 44.9 | – | –
C[C@H]1CN2C(=O)c3c(O)c(=O)c(C(=O)NCc4cccc(Cl)c4F)c4n3C(CC4)C2N1C (some centres unmarked) [Compound 105] | 0.495 | 32.6 | – | –
C[C@H]1CNC2C3CCc4c(C(=O)NCc5cccc(Cl)c5F)c(=O)c(O)c(n43)C(=O)N21 (some centres unmarked) [Compound 90] | 0.397 | 24.6 | – | –
O=C(NCc1ccc(F)cc1F)c1c2n3c(c(O)c1=O)C(=O)N1CCCCOC1C3CC2 (single isomer, unassigned) [Compound 70] | 1.12 | 3920 | – | –
CCNC1CC2C3OCCCN3C(=O)c3c(O)c(=O)c(C(=O)NCc4cccc(F)c4F)c1n32 (centres unmarked) [Compound 187] | 3.51 | 49.1 | – | –

Compound | IC50 [1] [nM] | IC50 [2] [nM] | IC50 [3] [nM] | IC50 [4] [nM]
CCCN1C2C3CCc4c(C(=O)NCc5cccc(Cl)c5F)c(=O)c(O)c(n43)C(=O)N2C[C@@H]1C (some centres unmarked) [Compound 107] | 2.82 | 272 | – | –
CC(=O)N1C[C@H](C)N2C(=O)c3c(O)c(=O)c(C(=O)NCc4cccc(Cl)c4F)c4n3C(CC4)C12 (some centres unmarked) [Compound 121] | – | – | 1.45 | 308
COC1CC2C3OCCN3C(=O)c3c(O)c(=O)c(C(=O)NCc4ccc(F)cc4F)c1n32 (single isomer, unassigned) [Compound 77] | 1.56 | 2160 | – | –
O=C(NCc1cccc(Cl)c1F)c1c2n3c(c(O)c1=O)C(=O)N1CCCCOC1C3CC2 (single isomer, unassigned) [Compound 67] | 0.577 | 1470 | – | –
CC(C)N1C[C@H](C)N2C(=O)c3c(O)c(=O)c(C(=O)NCc4cccc(Cl)c4F)c4n3C(CC4)C12 (some centres unmarked) [Compound 115] | – | – | 7.4 | 113
CC12NCCN1C(=O)c1c(O)c(=O)c(C(=O)NCc3ccc(F)cc3F)c3n1C2CC3 (centres unmarked) [Compound 138] | 2.41 | 27 | – | –
O=C(NCc1ccc(F)cc1)c1c2n3c(c(O)c1=O)C(=O)N1C4CCC(C4)OC1C3CC2 (centres unmarked) [Compound 161] | 2.67 | 5510 | – | –
CC(=O)N1C2C3CCc4c(C(=O)NCc5cccc(Cl)c5F)c(=O)c(O)c(n43)C(=O)N2C[C@@H]1C (some centres unmarked) [Compound 123] | 2.56 | 58.6 | – | –
O=C(NCc1ccc(F)c(Cl)c1F)c1c2n3c(c(O)c1=O)C(=O)N1C4CCC(C4)OC1C3CC2 (centres unmarked) [Compound 157] | 12.9 | 733 | – | –
CCNC1CC2C3OCCCN3C(=O)c3c(O)c(=O)c(C(=O)NCc4cccc(Cl)c4F)c1n32 (centres unmarked) [Compound 195] | 12.4 | 25.7 | – | –
C[C@H]1CCOC2C3CCc4c(C(=O)NCc5ccc(F)cc5F)c(=O)c(O)c(n43)C(=O)N21 (single isomer, unassigned) [Compound 62] | 0.83 | 528 | – | –
CCCN1C2C3CCc4c(C(=O)NCc5cccc(Cl)c5F)c(=O)c(O)c(n43)C(=O)N2C[C@@H]1C (some centres unmarked) [Compound 108] | 1.17 | 80.1 | – | –
CCNC1CC2C3OCCCN3C(=O)c3c(O)c(=O)c(C(=O)NCc4ccc(F)cc4F)c1n32 (centres unmarked) [Compound 202] | 7.73 | 39.4 | – | –
CCNC1CC2C3OCCCN3C(=O)c3c(O)c(=O)c(C(=O)NCc4ccc(F)cc4F)c1n32 (centres unmarked) [Compound 206] | 7.11 | 51.6 | – | –
C[C@@H]1CN2C(=O)c3c(O)c(=O)c(C(=O)NCc4cccc(Cl)c4F)c4n3C(CC4)C2O1 (some centres unmarked) [Compound 38] | – | – | 0.543 | 46.4
O=C(NCc1c(F)cc(F)cc1F)c1c2n3c(c(O)c1=O)C(=O)N1C4CCC(C4)OC1C3CC2 (centres unmarked) [Compound 170] | 2.59 | 5360 | – | –
CCNC1CC2C3OCCCN3C(=O)c3c(O)c(=O)c(C(=O)NCc4c(F)cc(F)cc4F)c1n32 (centres unmarked) [Compound 181] | 6.41 | 29.9 | – | –
O=C(NCc1ccc(F)c(Cl)c1F)c1c2n3c(c(O)c1=O)C(=O)N1C4CCC(C4)OC1C3CC2 (centres unmarked) [Compound 158] | 4 | 16100 | – | –
COC1CC2C3OCCN3C(=O)c3c(O)c(=O)c(C(=O)NCc4ccc(F)cc4F)c1n32 (single isomer, unassigned) [Compound 73] | 0.679 | 49.4 | – | –
C[C@@H]1CN2C(=O)c3c(O)c(=O)c(C(=O)NCc4cccc(Cl)c4F)c4n3C(CC4)C2O1 (single isomer, unassigned) [Compound 41] | 0.854 | 2380 | – | –
CC12OCCCN1C(=O)c1c(O)c(=O)c(C(=O)NCc3ccc(F)cc3F)c3n1C2CC3 (centres unmarked) [Compound 134] | 1.29 | 20.5 | – | –
O=C(NCc1c(F)cc(F)cc1F)c1c2n3c(c(O)c1=O)C(=O)N1CCOC1C3CC2 (single isomer, unassigned) [Compound 19] | 0.539 | 1230 | – | –
C[C@H]1CN2C(=O)c3c(O)c(=O)c(C(=O)NCc4cccc(Cl)c4F)c4n3C(CC4)C2O1 (single isomer, unassigned) [Compound 44] | 0.879 | 378 | – | –
O=C(NCc1ccc(F)cc1F)c1c2n3c(c(O)c1=O)C(=O)N1CCCOC1C3CC2 (single isomer, unassigned) [Compound 55] | – | 39.5 | 1.03 | –
